The values that follow are results of earlier work, collected in patent publication US20090270335A1, “COLLYRIUM FOR DRY EYE” (AQUEOUS PHARMA LIMITED, priority 2006, published 2009).

The series has as its system tear secretion. Particulars: topical application.
Setting [1] is: both in dry eye patients and people not suffering from dry eye.

In the case of `CC[C@H](C)[C@H](NC(=O)[C@H](Cc1ccccc1)NC(=O)[C@H](C)NC(=O)[C@H](CC(=O)O)NC(=O)[C@H](CCCCN)NC(=O)[C@H](CO)NC(=O)[C@@H]1CCCN1C(=O)[C@@H]1CCC(=O)N1)C(=O)NCC(=O)N[C@@H](CC(C)C)C(=O)N[C@@H](CCSC)C(N)=O` [eledoisin, Glu-Pro-Ser-Lys-Asp-Ala-Phe-Ile-Gly-Leu-Met-NH2], under setting [1], the tear secretion rate entry was “increase” and the tear volume entry is recorded as “increase”. In addition, under “patients”, the “side effect: chemosis” value was “not pronounced” and the “side effect: hyperemia of the conjunctiva” value was “observed initially in some patients”.
